The test system of one series is Mitochondrial membrane. Description: Induction of mitochondrial membrane potential depolarization in human MOLM-13 cells. Type of series: cell membranes. To be noted: dose 0.1 µM.
Series [1] deals with MOLM-13. Description: Antitumor activity against human MOLM-13 cells xenografted BALB/c mouse assessed as tumor growth inhibition at 10 mg/kg, IG qd administered 5 days a week and measured on day 9. It counts as functional. To be noted: MOLM-13, po, 216 h, time 9 day, read-out: TGI.
A further series relates to KG-1. Description: Antiproliferative activity against human KG-1 cells incubated for 48 hrs. To be noted: KG-1, 48 h.
The next series deals with THP-1. Description: Antiproliferative activity against human THP-1 cells incubated for 48 hrs. To be noted: THP-1, 48 h.
Series [2] deals with MOLM-13. Description: Induction of cell cycle arrest in human MOLM-13 cells assessed as accumulation of cells at G0/G1 phase at 0.05 uM measured for 48 hrs by PI/RNase staining based flow cytometric analysis (reference value: 46.24 %). It counts as functional. In general terms: Flow cytometry measures light scatter and fluorescence of single cells or particles in a stream.
Series [3] has as its system MOLM-13. Description: Induction of apoptosis in human MOLM-13 cells assessed as early apoptotic cells at 0.1 uM incubated for 48 hrs by Annexin V-FITC staining based flow cytometry analysis (reference value: 4.07 %). Type of series: functional.
Series [4] has as its target Receptor-type tyrosine-protein kinase FLT3 (Homo sapiens) (UniProt P36888). Description: Inhibition of FLT3 phosphorylation in human MOLM-13 cells at 0.001 to 0.1 microM by Western blot analysis. Type of series: cell-based. As to conditions: dose 0.001-0.1 µM.
The nature of series [5]: Toxicity in BALB/c mouse xenografted with human MOLM-13 cells assessed as body weight loss at 10 mg/kg, IG qd administered 5 days a week and measured on day 9. It counts as organism-based. As to conditions: in vivo, po, 216 h, time 9 day.
Series [6] deals with MOLM-13. Description: Induction of apoptosis in human MOLM-13 cells assessed as late apoptotic cells at 0.1 uM incubated for 48 hrs by Annexin V-FITC staining based flow cytometry analysis (reference value: 1.40 %). Type of series: functional.
In series [7] the test system is MOLM-13. Description: Induction of apoptosis in human MOLM-13 cells assessed as viable cells at 0.1 uM incubated for 48 hrs by Annexin V-FITC staining based flow cytometry analysis (reference value: 94.5 %). It counts as functional.
Series [8] relates to MOLM-13. Description: Antitumor activity against human MOLM-13 cells xenografted BALB/c mouse assessed as reduction in tumor volume at 10 mg/kg, IG qd administered 5 days a week and measured on day 9. To be noted: time 9.0 day. Type of series: functional, organism-based. For orientation: Xenograft models place foreign cells or tissue in a host animal.
Series [9] has as its target T1, Receptor-type tyrosine-protein kinase FLT3 (Homo sapiens, UniProt P36888).
T1 sequence (P36888 whole entry): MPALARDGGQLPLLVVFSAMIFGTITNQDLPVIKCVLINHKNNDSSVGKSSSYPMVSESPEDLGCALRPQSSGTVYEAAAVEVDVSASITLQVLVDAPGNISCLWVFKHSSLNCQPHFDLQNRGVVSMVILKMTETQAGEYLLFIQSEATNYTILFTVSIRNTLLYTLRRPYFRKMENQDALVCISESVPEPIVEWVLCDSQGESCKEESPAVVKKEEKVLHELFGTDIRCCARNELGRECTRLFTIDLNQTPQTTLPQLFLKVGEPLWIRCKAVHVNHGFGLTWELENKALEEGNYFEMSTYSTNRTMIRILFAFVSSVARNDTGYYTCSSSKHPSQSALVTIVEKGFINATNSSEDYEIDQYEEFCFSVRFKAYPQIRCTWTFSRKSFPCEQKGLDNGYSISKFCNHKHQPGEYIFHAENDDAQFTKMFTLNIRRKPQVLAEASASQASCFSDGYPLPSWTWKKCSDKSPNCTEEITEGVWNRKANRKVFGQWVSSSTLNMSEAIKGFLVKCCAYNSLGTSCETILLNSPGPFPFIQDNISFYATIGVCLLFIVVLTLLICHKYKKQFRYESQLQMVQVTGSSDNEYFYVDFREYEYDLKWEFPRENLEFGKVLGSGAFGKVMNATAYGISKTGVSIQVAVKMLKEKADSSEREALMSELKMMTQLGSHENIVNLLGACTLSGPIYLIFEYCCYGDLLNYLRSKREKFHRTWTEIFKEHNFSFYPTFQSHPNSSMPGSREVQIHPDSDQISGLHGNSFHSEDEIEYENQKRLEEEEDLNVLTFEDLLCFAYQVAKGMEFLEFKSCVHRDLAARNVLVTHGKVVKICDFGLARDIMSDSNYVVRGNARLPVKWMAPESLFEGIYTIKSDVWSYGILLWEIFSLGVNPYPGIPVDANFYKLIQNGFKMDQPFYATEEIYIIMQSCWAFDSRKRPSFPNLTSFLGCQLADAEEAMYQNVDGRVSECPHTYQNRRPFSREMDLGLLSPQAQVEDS
Description: Inhibition of FLT3 (unknown origin) incubated for 40 mins in presence of ATP by kinase-glo plus luminescence assay. For orientation: Kinase-Glo measures the ATP left after a reaction by luminescence.

The test system of series [10] is MOLM-13. Description: Induction of apoptosis in human MOLM-13 cells assessed as necrotic at 0.1 uM incubated for 48 hrs by Annexin V-FITC staining based flow cytometry analysis (reference value: 0.013 %). It counts as functional.
Series [11] deals with MOLM-13. Description: Induction of apoptosis in human MOLM-13 cells assessed as caspase-3 activation. It counts as functional, cell-based. As to conditions: dose 0.1 µM.
The next series concerns K562. Description: Antiproliferative activity against human K562 cells incubated for 48 hrs. To be noted: K562, 48 h.
For series [12], the system named is MOLM-13. Description: Antiproliferative activity against human MOLM-13 cells incubated for 48 hrs. To be noted: MOLM-13, 48 h.
Series [13] has as its system MOLM-13. Description: Induction of cell cycle arrest in human MOLM-13 cells assessed as accumulation of cells at S-phase at 0.05 uM measured for 48 hrs by PI/RNase staining based flow cytometric analysis (reference value: 42.95%). Type of series: functional.
In series [14] the test system is MOLM-13. Description: Induction of cell cycle arrest in human MOLM-13 cells assessed as accumulation of cells at G2M phase at 0.05 uM measured for 48 hrs by PI/RNase staining based flow cytometric analysis (reference value: 10.81%). It counts as functional.
Series [15] in a line: Toxicity in BALB/c mouse xenografted with human MOLM-13 cells assessed as lung damage at 10 mg/kg, IG qd administered 5 days a week and measured on day 9 by H and E staining based analysis. It counts as organism-based. As to conditions: in vivo, po, 216 h, time 9 day.
The subject of series [16] is MOLM-13. Description: Inhibition of STAT5 phosphorylation in human MOLM-13 cells at 0.01 to 0.1 microM by Western blot analysis. It counts as cell-based. To be noted: dose 0.01-0.1 µM.
Series [17] is described as follows: Metabolic stability in mouse liver microsome incubated upto 120 mins in presence of NADPH by HPLC analysis. It counts as ADME. As to conditions: microsomes, 2 h.
For series [18], the system named is MOLM-13. Description: Inhibition of ERK1/2 phosphorylation in human MOLM-13 cells at 0.1 microM by Western blot analysis. It counts as cell-based.
Series [19] can be described thus: Toxicity in BALB/c mouse xenografted with human MOLM-13 cells assessed as kidney damage at 10 mg/kg, IG qd administered 5 days a week and measured on day 9 by H and E staining based analysis. Type of series: organism-based. As to conditions: in vivo, po, 216 h, time 9 day.
A short description of series [20]: Cytotoxicity against HEK293T cells incubated for 48 hrs. It counts as toxicity, cell-based, HEK-293T. As to conditions: human.
The test system of series [21] is MOLM-13. Description: Inhibition of ERK1/2 phosphorylation in human MOLM-13 cells at 0.01 to 0.1 microM by Western blot analysis. As to conditions: dose 0.01-0.1 µM. Type of series: cell-based.
A short description of series [22]: Stability in mouse plasma incubated upto 24 hrs by HPLC analysis. It counts as ADME, cell-free.
Series [23] is described as follows: Toxicity in NOD/SCID mouse xenografted with human MOLM-13 cells assessed as increase in survival rate at 60 mg/kg, IG administered 5 days per week in presence of gilteritinib by Kaplan Mayer survival analysis. Type of series: organism-based. To be noted: in vivo, po, 120 h, time 5 day.
For series [24], the system named is MOLM-13. Description: Induction of apoptosis in human MOLM-13 cells assessed as late apoptotic cells at 0.1 uM incubated for 48 hrs in presence of gilteritinib by Annexin V-FITC staining based flow cytometry analysis (reference value: 1.40 %). Type of series: functional.
In series [25] the test system is MOLM-13. Description: Induction of cell cycle arrest in human MOLM-13 cells assessed as accumulation of cells at G0/G1 phase at 0.05 uM measured for 48 hrs in presence of gilteritinib by PI/RNase staining based flow cytometric analysis (reference value: 46.24 %). It counts as functional.
The subject of series [26] is MOLM-13. Description: Induction of apoptosis in human MOLM-13 cells assessed as early apoptotic cells at 0.1 uM incubated for 48 hrs in presence of gilteritinib by Annexin V-FITC staining based flow cytometry analysis (reference value: 4.07 %). Type of series: functional.
Series [27] concerns MOLM-13. Description: Induction of apoptosis in human MOLM-13 cells assessed as viable cells at 0.1 uM incubated for 48 hrs in presence of gilteritinib by Annexin V-FITC staining based flow cytometry analysis (reference value: 94.5 %). It counts as functional.
Series [28] deals with MOLM-13. Description: Induction of apoptosis in human MOLM-13 cells assessed as necrotic cells at 0.1 uM incubated for 48 hrs in presence of gilteritinib by Annexin V-FITC staining based flow cytometry analysis (reference value: 0.013 %). It counts as functional.
Series [29] deals with MOLM-13. Description: Induction of cell cycle arrest in human MOLM-13 cells assessed as accumulation of cells at G2M phase at 0.05 uM measured for 48 hrs in presence of gilteritinib by PI/RNase staining based flow cytometric analysis (reference value: 10.81%). It counts as functional.
Series [30] relates to MOLM-13. Description: Induction of cell cycle arrest in human MOLM-13 cells assessed as accumulation of cells at S-phase at 0.05 uM measured for 48 hrs in presence of gilteritinib by PI/RNase staining based flow cytometric analysis (reference value: 42.95%). Type of series: functional.
Series [31] can be described thus: Toxicity in BALB/c mouse xenografted with human MOLM-13 cells assessed as body weight loss at 30 mg/kg, IG qd administered 5 days a week and measured on day 9 in presence of gilteritinib. It counts as organism-based. As to conditions: in vivo, po, 216 h, time 9 day.
Series [32] is described as follows: Toxicity in BALB/c mouse xenografted with human MOLM-13 cells assessed as lung damage at 30 mg/kg, IG qd administered 5 days a week and measured on day 9 in presence of gilteritinib by H and E staining based analysis. Type of series: organism-based. As to conditions: in vivo, po, 216 h, time 9 day.

pIC50: −log10 of the molar value. Calls of active or inactive are those of the source. No cut-off for these calls is given here.

These results are taken from ChEMBL document CHEMBL6127050, “Simultaneous inhibition of FLT3 and HDAC by novel 6-ethylpyrazine-2-Carboxamide derivatives provides therapeutic advantages in acute myelocytic leukemia” (Eur J Med Chem, 2024).

By pIC50 is commonly meant the negative decadic logarithm of the IC50, by convention in mol/L. In general, IC50 refers to the concentration that gives 50% inhibition.

For the compound `CCc1nc(C(N)=O)c(Nc2ccc(N3CCN(CCCCCCCC(=O)NO)CC3)c(OC)c2)nc1NC1CCOCC1`, the Activity entry in the series on Mitochondrial membrane is “Dose-Dependent Effect”; with MOLM-13 [2], 75.85%; in the series with MOLM-13 [3] it was 43.5%; in series [5], “Non-Toxic”; in the series on MOLM-13 [6], 16.6%; in the series with MOLM-13 [10], 0.54%. In addition, the Activity entry is “Dose-Dependent Effect” in the series on MOLM-13 [11]; 20.04% in the series on MOLM-13 [13]; 4.12% in the series on MOLM-13 [14]; “Non-Toxic” in series [15]; “Non-Toxic” in series [19]. The inhibition in vivo at 10 mg/kg with MOLM-13 [1] worked out at 65.3%. Further, the pIC50 with KG-1 was 6.18; in the series on THP-1, 6.19; in [9], 9.22; in the series on K562, 6.31; in the series on MOLM-13 [12], 8.10. The inhibition result (in series [4]; in the series with MOLM-13 [16]; with MOLM-13 [18]; in the series on MOLM-13 [21]) was “Active” each time. For the same compound, the viability at 0.1 µM in the series on MOLM-13 [7] (Homo sapiens, MOLM-13, read-out: Activity) was 39.4%. The result in the series on MOLM-13 [8] was Active. Moreover, the Stability entry in [17] and in series [22] was “Stable” in each case. In series [20], the IC50 at 48 h was 3050 nM.

Consider `O=C(CCCCCCC(=O)Nc1ccccc1)NO` [VORINOSTAT], for which the Activity result is “Non-Toxic” in series [23]; 17.4% in the series on MOLM-13 [24]; 49.16% in the series with MOLM-13 [2]; 14.8% in the series on MOLM-13 [3]; 64.51% in the series with MOLM-13 [25]; 2.01% with MOLM-13 [6]. For the same compound, the Activity is reported as 83% in the series with MOLM-13 [7]; 35% with MOLM-13 [26]; 46.8% in the series on MOLM-13 [27]; 0.88% in the series with MOLM-13 [28]; 0.18% in the series with MOLM-13 [10]; 43.26% in the series with MOLM-13 [13]. Also, the Activity is listed as 7.58% with MOLM-13 [14]; 7.24% with MOLM-13 [29]; 28.26% with MOLM-13 [30]; “Non-Toxic” in series [31]; “Non-Toxic” in series [32]. The IC50 at 48 h in [20] amounted to 2210 nM.
